Biological target: HPK1 (Homo sapiens (Human), UniProt Q92918)
Experiment: HPK1 biochemical enzyme assay (microfluidic mobility shift assay)
Conditions: 1.5 nM HPK1, ATP 1 mM final, 30 min preincubation, 60 min at RT, Caliper EZ Reader; read-out: HPK1 1000UMATP caliper IC50
Procedure, shortened: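 Mobility shift readout of HPK1 activity after a 60 min RT reaction with 1 mM ATP, 1 μM substrate and 5 mM MgCl2. Enzyme/substrate mix was first exposed to compounds for 30 min, using ten-point curves topping at 3 μM final.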

Chain of HPK1 (Q92918 whole entry): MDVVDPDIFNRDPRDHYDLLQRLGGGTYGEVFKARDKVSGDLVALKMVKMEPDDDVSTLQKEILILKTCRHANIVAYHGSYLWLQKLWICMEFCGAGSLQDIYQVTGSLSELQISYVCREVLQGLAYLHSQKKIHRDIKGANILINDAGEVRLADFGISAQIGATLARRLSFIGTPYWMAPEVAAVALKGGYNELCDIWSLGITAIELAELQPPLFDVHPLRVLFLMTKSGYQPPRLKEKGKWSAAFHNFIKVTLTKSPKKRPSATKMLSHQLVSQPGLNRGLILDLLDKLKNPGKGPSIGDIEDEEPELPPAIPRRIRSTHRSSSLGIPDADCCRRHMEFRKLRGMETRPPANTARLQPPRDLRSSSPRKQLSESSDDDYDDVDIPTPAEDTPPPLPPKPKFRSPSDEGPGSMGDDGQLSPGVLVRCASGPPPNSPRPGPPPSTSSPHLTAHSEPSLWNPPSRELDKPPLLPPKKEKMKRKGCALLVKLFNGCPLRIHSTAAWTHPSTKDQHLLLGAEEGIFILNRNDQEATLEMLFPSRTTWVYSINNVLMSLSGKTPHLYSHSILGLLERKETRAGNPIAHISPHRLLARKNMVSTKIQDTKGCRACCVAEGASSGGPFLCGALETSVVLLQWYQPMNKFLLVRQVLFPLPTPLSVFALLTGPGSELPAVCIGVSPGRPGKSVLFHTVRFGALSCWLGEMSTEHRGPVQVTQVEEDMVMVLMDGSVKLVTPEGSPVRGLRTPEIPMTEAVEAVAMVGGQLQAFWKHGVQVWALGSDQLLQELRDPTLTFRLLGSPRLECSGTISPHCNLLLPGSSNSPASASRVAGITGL

Row | SMILES | IC50
1 | Cn1ccc2c(-c3ccc(Nc4ccc(N5CCC(O)CC5)cn4)c4c3C(C)(C)NC4=O)ccnc21 [I-282, 7-((5-(4-hydroxypiper-idin-1-yl)pyridin-2-yl)amino)-3.3-dimethyl-4-(1-methyl-1H-pyrrolo[2,3-b]pyridin-4-yl)isoindolin-1-one] | > 1000 nM
2 | Cn1ccc2c(-c3ccc(Nc4ccc(N5CC[C@H](O)C5)cn4)c4c3CNC4=O)ccnc21 [I-285, (S)-7-((5-(3-hydroxy-pyrrolidin-1-yl)pyridin-2-yl)amino)-4-(1-methyl-1H-pyrrolo[2,3-b]pyridin-4-yl)isoindolin-1-one] | < 100 nM
3 | Cn1ccc2c(-c3ncc(Nc4ccc(N5C[C@H]6C[C@@H]5CO6)cn4)c4c3CNC4=O)ccnc21 [I-289, 7-((5-((1R,4R)-2-oxa-5-azabicyclo[2.2.1]heptan-5-yl)pyridin-2-yl)amino)-4-(1-methyl-1H-pyrrolo[2,3-b]pyridin-4-yl)-2,3-dihydro-1H-pyrrolo[3,4-c]pyridin-1-one] | < 100 nM
4 | Cn1ccc2c(-c3ccc(Nc4ccc(N5CCC(O)(CN6CCOCC6)CC5)cn4)c4c3CNC4=O)ccnc21 [I-291, 7-((5-(4-hydroxy-4-(morpholino-methyl)piperi-din-1-yl)pyridin-2-yl)amino)-4-(1-methyl-1H-pyrrolo[2,3-b]pyridin-4-yl)isoindolin-1-one] | < 100 nM
5 | Cn1ccc2c(-c3ccc(Nc4ccc(CS(C)(=O)=O)cn4)c4c3CNC4=O)ccnc21 [I-293, 4-(1-methyl-1H-pyrrolo[2,3-b]pyridin-4-yl)-7-((5-((methylsulfonyl)methyl)pyridin-2-yl)amino)isoindolin-1-one] | < 100 nM
6 | CN1CCc2cc(Nc3ccc(-c4ccnc5c4ccn5C)c4c3C(=O)NC4)nn2CC1=O [I-294, 6-methyl-2-((7-(1-methyl-1H-pyrrolo[2,3-b]pyridin-4-yl)-3-oxoisoindolin-4-yl)amino)-5.6-dihydro-4H-pyrazolo[1,5-d][l,4]diaze-pin-7(8H)-one] | < 100 nM
7 | Cn1ccc2c(-c3ccc(Nc4ccc(N5CC6(CC(O)C6)C5)cn4)c4c3CNC4=O)ccnc21 [I-297, 7-((5-(6-hydroxy-2-azaspiro[3,3]heptan-2-yl)pyridin-2-yl)amino)-4-(1-methyl-1H-pyrrolo[2,3-b]pyridin-4-yl)isoindolin-1-one] | < 100 nM
8 | COCC1(O)CCN(c2ccc(Nc3ccc(-c4ccnc5c4ccn5C)c4c3C(=O)NC4)nc2)CC1 [I-298, 7-((5-(4-hydroxy-4-(methoxymeth-yl)piperidin-1-yl)pyridin-2-yl)amino)-4-(1-methyl-1H-pyrrolo[2,3-b]pyridin-4-yl)isoindolin-1-one] | < 100 nM

Continued, values first:

Row | IC50 | SMILES
9 | 100 to 1000 nM | O=C1NCc2c(-c3cnn4c3CCCCC4)ccc(Nc3ccc(N4CCC(O)CC4)cn3)c21 [I-283, 7-((5-(4-hydroxy-piperidin-1-yl)pyridin-2-yl)amino)-4-(5,6,7,8-tetrahydro-4H-pyrazolo[1,5-a]azepin-3-yl)isoindolin-1-one]
10 | < 100 nM | O=C1NCc2c(-c3cnn4c3CCCC4)ccc(Nc3ccc(N4CCC(O)CC4)cn3)c21 [I-284, 7-((5-(4-hydroxy-piperidin-1-yl)pyridin-2-yl)amino)-4-(4,5,6,7-tetrahydropyra-zolo[1,5-a]pyridin-3-yl)isoindolin-1-one]
11 | 100 to 1000 nM | O=C1NCc2c(-c3cnc4n3CCCCC4)ccc(Nc3ccc(N4CCC(O)CC4)cn3)c21 [I-288, 7-((5-(4-hydroxy-piperidin-1-yl)pyridin-2-yl)amino)-4-(6,7,8,9-tetrahydro-5H-imidazo[1,2-a]azepin-3-yl)isoindolin-1-one]
12 | > 1000 nM | CN1CCc2cc(-c3ccc(Nc4ccc(N5CCC(O)CC5)cn4)c4c3CNC4=O)nn2CC1=O [I-290, 2-(7-((5-(4-hydroxy-piperidin-1-yl)pyridin-2-yl)amino)-1-oxoisoindolin-4-yl)-6-methyl-5,6-dihydro-4H-pyrazolo[1,5-d][1,4]diaze-pin-7(8H)-one]
13 | 100 to 1000 nM | O=C1NCc2c(-c3cnc4n3CCCC4)ccc(Nc3ccc(N4CCC(O)CC4)cn3)c21 [I-296, 7-((5-(4-hydroxy-piperidin-1-yl)pyridin-2-yl)amino)-4-(5,6,7,8-tetrahydro-imidazo[1,2-a]pyridin-3-yl)isoindolin-1-one]
